Where “and” joins values, the source holds several entries; their conditions need not be identical. Equal entries are not always repeated.
Tested on: 966289-007-R4-J1-PDC complex spheroid viability
Assay: Anticancer human tumor 966289-007-R4-J1-PDC patient-derived pancreatic adenocarcinoma cell line growth inhibition [RAS]
Conditions: for viability, T/C: stronger effect = lower value
Method in brief: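 Agents were tested in combination matrices in half-log decrements from a top concentration at or near clinical Cmax (10 microM if undetermined). Targets were multi-cell spheroids of tumour lines plus HUVEC and MSC stromal cells.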
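Further: spheroids exposed to agents for one week before readout.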
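Wherever viability, T/C is given: percent viability relative to DMSO vehicle control wells as 100%.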

Question: Which IC50 (curve of first compound, second compound 0.000949 µM) does the source give for `CC(Nc1ccc2c(c1)OCCn1cc(N3C(=O)OCC3C(F)F)nc1-2)C(N)=O` (stereo not drawn) + CCn1c(-c2cccnc2C(C)OC)c2c3cc(ccc31)N1CCOC(CC(NC(=O)C(C(C)C)N(C)C(=O)C3(F)CCN(C(=O)C#CC(C)(C)N(C)C)CC3)C(=O)N3CCCC(N3)C(=O)OCC(C)(C)C2)C1 here?
Answer: > 10000 nM

Question: What about the IC50 (curve of first compound, second compound 0.003 µM) of the same compound?
Answer: > 10000 nM

Question: What about the IC50 (curve of first compound, second compound 0.00949 µM) of the same compound?
Answer: > 10000 nM

Question: And the IC50 (curve of first compound, second compound 0.03 µM)?
Answer: > 10000 nM

Question: What about the IC50 (curve of first compound, second compound 0.0949 µM) of the same compound?
Answer: > 10000 nM

Question: What about the IC50 (curve of first compound, second compound 0.3 µM) of the same compound?
Answer: > 10000 nM

Question: What about the viability, T/C (second compound 0.000949 µM, first compound 0.0316 µM) of the same compound?
Answer: 97.2%

Question: What about the viability, T/C (second compound 0.000949 µM, first compound 0.1 µM) of the same compound?
Answer: 114%

Question: What about the viability, T/C (second compound 0.000949 µM, first compound 0.316 µM) of the same compound?
Answer: 121%

Question: What about the viability, T/C (second compound 0.000949 µM, first compound 1 µM) of the same compound?
Answer: 77.1%

Question: What about the viability, T/C (second compound 0.000949 µM, first compound 3.16 µM) of the same compound?
Answer: 90.5%

Question: And the viability, T/C (second compound 0.000949 µM, first compound 10 µM)?
Answer: 74.9%

Question: And the viability, T/C (second compound 0.003 µM, first compound 0.0316 µM)?
Answer: 93.7%

Question: And the viability, T/C (second compound 0.003 µM, first compound 0.1 µM)?
Answer: 99.9%

Question: And the viability, T/C (second compound 0.003 µM, first compound 0.316 µM)?
Answer: 111%

Question: And the viability, T/C (second compound 0.003 µM, first compound 1 µM)?
Answer: 83.4%

Question: And the viability, T/C (second compound 0.003 µM, first compound 3.16 µM)?
Answer: 78.2%

Question: And the viability, T/C (second compound 0.003 µM, first compound 10 µM)?
Answer: 86.1%

Question: And the viability, T/C (second compound 0.00949 µM, first compound 0.0316 µM)?
Answer: 73.8%

Question: What about the viability, T/C (second compound 0.00949 µM, first compound 0.1 µM) of the same compound?
Answer: 105%

Question: What about the viability, T/C (second compound 0.00949 µM, first compound 0.316 µM) of the same compound?
Answer: 111%

Question: What about the viability, T/C (second compound 0.00949 µM, first compound 1 µM) of the same compound?
Answer: 92.6%

Question: What about the viability, T/C (second compound 0.00949 µM, first compound 3.16 µM) of the same compound?
Answer: 103%

Question: And the viability, T/C (second compound 0.00949 µM, first compound 10 µM)?
Answer: 77.3%

Question: What about the viability, T/C (second compound 0.03 µM, first compound 0.0316 µM) of the same compound?
Answer: 60.7%

Question: And the viability, T/C (second compound 0.03 µM, first compound 0.1 µM)?
Answer: 94.2%

Question: And the viability, T/C (second compound 0.03 µM, first compound 0.316 µM)?
Answer: 106%

Question: And the viability, T/C (second compound 0.03 µM, first compound 1 µM)?
Answer: 82.3%

Question: What about the viability, T/C (second compound 0.03 µM, first compound 3.16 µM) of the same compound?
Answer: 114%

Question: And the viability, T/C (second compound 0.03 µM, first compound 10 µM)?
Answer: 88.5%

Question: What about the viability, T/C (second compound 0.0949 µM, first compound 0.0316 µM) of the same compound?
Answer: 69.8%

Question: What about the viability, T/C (second compound 0.0949 µM, first compound 0.1 µM) of the same compound?
Answer: 91.7%

Question: And the viability, T/C (second compound 0.0949 µM, first compound 0.316 µM)?
Answer: 105%

Question: And the viability, T/C (second compound 0.0949 µM, first compound 1 µM)?
Answer: 108%

Question: And the viability, T/C (second compound 0.0949 µM, first compound 3.16 µM)?
Answer: 105%

Question: And the viability, T/C (second compound 0.0949 µM, first compound 10 µM)?
Answer: 82%

Question: What about the viability, T/C (second compound 0.3 µM, first compound 0.0316 µM) of the same compound?
Answer: 101%

Question: What about the viability, T/C (second compound 0.3 µM, first compound 0.1 µM) of the same compound?
Answer: 94.8%

Question: And the viability, T/C (second compound 0.3 µM, first compound 0.316 µM)?
Answer: 124%

Question: And the viability, T/C (second compound 0.3 µM, first compound 1 µM)?
Answer: 97%

Question: And the viability, T/C (second compound 0.3 µM, first compound 3.16 µM)?
Answer: 135%

Question: And the viability, T/C (second compound 0.3 µM, first compound 10 µM)?
Answer: 73.8%

Question: `Nc1ccn(C2OC(CO)C(O)C2(F)F)c(=O)n1` (stereo not drawn) + C#Cc1c(F)ccc2cc(O)cc(-c3ncc4c(N5CC6CCC(C5)N6)nc(OCC56CCCN5CC(F)C6)nc4c3F)c12 was tested. Which IC50 (curve of first compound, second compound 0.0316 µM) did it give?
Answer: 7.64 nM

Question: What about the IC50 (curve of first compound, second compound 0.1 µM) of the same compound?
Answer: 11.9 nM

Question: And the IC50 (curve of first compound, second compound 0.316 µM)?
Answer: 8.38 nM

Question: What about the IC50 (curve of first compound, second compound 1 µM) of the same compound?
Answer: 8.9 nM

Question: What about the IC50 (curve of first compound, second compound 3.16 µM) of the same compound?
Answer: 8.38 nM

Question: And the IC50 (curve of first compound, second compound 10 µM)?
Answer: 7.88 nM

Question: And the viability, T/C (second compound 0.0316 µM, first compound 0.00316 µM)?
Answer: 108%

Question: And the viability, T/C (second compound 0.0316 µM, first compound 0.01 µM)?
Answer: 32.5%

Question: What about the viability, T/C (second compound 0.0316 µM, first compound 0.0316 µM) of the same compound?
Answer: 2.19%

Question: What about the viability, T/C (second compound 0.0316 µM, first compound 0.1 µM) of the same compound?
Answer: 1.41%

Question: What about the viability, T/C (second compound 0.0316 µM, first compound 0.316 µM) of the same compound?
Answer: 1.38%

Question: And the viability, T/C (second compound 0.0316 µM, first compound 1 µM)?
Answer: 1.56%

Question: What about the viability, T/C (second compound 0.1 µM, first compound 0.00316 µM) of the same compound?
Answer: 99.4%

Question: And the viability, T/C (second compound 0.1 µM, first compound 0.01 µM)?
Answer: 58.5%

Question: And the viability, T/C (second compound 0.1 µM, first compound 0.0316 µM)?
Answer: 1.48%

Question: And the viability, T/C (second compound 0.1 µM, first compound 0.1 µM)?
Answer: 1.34%

Question: And the viability, T/C (second compound 0.1 µM, first compound 0.316 µM)?
Answer: 1.6%

Question: And the viability, T/C (second compound 0.1 µM, first compound 1 µM)?
Answer: 1.65%

Question: And the viability, T/C (second compound 0.316 µM, first compound 0.00316 µM)?
Answer: 91.6%

Question: And the viability, T/C (second compound 0.316 µM, first compound 0.01 µM)?
Answer: 42.4%

Question: And the viability, T/C (second compound 0.316 µM, first compound 0.0316 µM)?
Answer: 1.95%

Question: And the viability, T/C (second compound 0.316 µM, first compound 0.1 µM)?
Answer: 1.65%

Question: And the viability, T/C (second compound 0.316 µM, first compound 0.316 µM)?
Answer: 1.22%

Question: And the viability, T/C (second compound 0.316 µM, first compound 1 µM)?
Answer: 1.73%

Question: What about the viability, T/C (second compound 1 µM, first compound 0.00316 µM) of the same compound?
Answer: 101%

Question: What about the viability, T/C (second compound 1 µM, first compound 0.01 µM) of the same compound?
Answer: 44.2%

Question: What about the viability, T/C (second compound 1 µM, first compound 0.0316 µM) of the same compound?
Answer: 2.02%

Question: And the viability, T/C (second compound 1 µM, first compound 0.1 µM)?
Answer: 1.61%

Question: What about the viability, T/C (second compound 1 µM, first compound 0.316 µM) of the same compound?
Answer: 1.68%

Question: And the viability, T/C (second compound 1 µM, first compound 1 µM)?
Answer: 1.67%

Question: What about the viability, T/C (second compound 3.16 µM, first compound 0.00316 µM) of the same compound?
Answer: 97.4%

Question: What about the viability, T/C (second compound 3.16 µM, first compound 0.01 µM) of the same compound?
Answer: 41.4%

Question: And the viability, T/C (second compound 3.16 µM, first compound 0.0316 µM)?
Answer: 2.43%

Question: What about the viability, T/C (second compound 3.16 µM, first compound 0.1 µM) of the same compound?
Answer: 2.49%

Question: What about the viability, T/C (second compound 3.16 µM, first compound 0.316 µM) of the same compound?
Answer: 2.42%

Question: What about the viability, T/C (second compound 3.16 µM, first compound 1 µM) of the same compound?
Answer: 2.25%

Question: What about the viability, T/C (second compound 10 µM, first compound 0.00316 µM) of the same compound?
Answer: 99.1%

Question: And the viability, T/C (second compound 10 µM, first compound 0.01 µM)?
Answer: 37.1%

Question: What about the viability, T/C (second compound 10 µM, first compound 0.0316 µM) of the same compound?
Answer: 1.37%

Question: What about the viability, T/C (second compound 10 µM, first compound 0.1 µM) of the same compound?
Answer: 1.51%

Question: And the viability, T/C (second compound 10 µM, first compound 0.316 µM)?
Answer: 1.83%

Question: And the viability, T/C (second compound 10 µM, first compound 1 µM)?
Answer: 1.37%

Question: `Cc1nc(N2CCC3(CC2)COC(C)C3N)c(CO)nc1Sc1ccnc(N)c1Cl` (stereo not drawn) was tested. Which viability, T/C (compound 0.316 µM) did it give?
Answer: 108% [middle of 4 runs]

Question: And the viability, T/C (compound 1 µM)?
Answer: 102% (2×) and 73.6% and 119%

Question: What about the viability, T/C (compound 10 µM) of the same compound?
Answer: 95.5% [middle of 4 runs]

Question: What about the IC50 (curve of compound) of the same compound?
Answer: > 10000 nM
